Test: Release of torasemide (active substance) in water, USP 24
Type: physicochemical
Settings: 37° C., 50 rpm, 1000 ml
Method: The physical mixture of the modification I of torasemide and β-cyclodextrin prepared according to the Example 1 of the present invention was subjected to testing the release of the active substance in water at the temperature of 37° C.
The inclusion complex of the modification I of torasemide and β-cyclodextrin to the Example 3 of the present invention was subjected to testing the release of the active substance in water at the temperature of 37° C.

## Cc1cccc(Nc2ccncc2S(=O)(=O)NC(=O)NC(C)C)c1 [Modification I of torasemide, N-(1-methylethylaminocarbonyl)-4-(3-methylphenylamino)-3-pyridylsulfonamide]
Time 0 min
  Released torasemide (%): 0%
Time 15 min
  Released torasemide (%): 0.7%
Time 30 min
  Released torasemide (%): 20.3%
Time 45 min
  Released torasemide (%): 38.5%
Time 60 min
  Released torasemide (%): 51.8%
Time 90 min
  Released torasemide (%): 68.5%
Time 120 min
  Released torasemide (%): 78.7%

— patent US7037928B2, “Compositions of N-(methylethylaminocarbonyl)-4-(-3-methylphenylamino)-3-pyridylsulfonamide and cyclic oligosaccharides” (PLIVA, farmaceutska industrija, dionicko drustvo, priority 2000, dated 2006)
